Experimental data reported in US20230167073A1 (Teijin Pharma Limited, priority 2020, published 2023).

biological target: T1, Human TRPC6 (Homo sapiens, UniProt Q9Y210); assay: Evaluation of TRPC6 channel inhibitory activity (1), FLIPR Calcium 5 Assay Kit, OAG stimulation (Compound Nos. 1-1293); type: cell-based; conditions: Human TRPC6 stably-expressing cells, OAG 30 μM, FLIPR Calcium 5 Assay Kit; read-out: Inhibitory activity (pIC50 class) (converted)
T1 construct: expressed in transfected cells
T1 sequence (Q9Y210 1-931): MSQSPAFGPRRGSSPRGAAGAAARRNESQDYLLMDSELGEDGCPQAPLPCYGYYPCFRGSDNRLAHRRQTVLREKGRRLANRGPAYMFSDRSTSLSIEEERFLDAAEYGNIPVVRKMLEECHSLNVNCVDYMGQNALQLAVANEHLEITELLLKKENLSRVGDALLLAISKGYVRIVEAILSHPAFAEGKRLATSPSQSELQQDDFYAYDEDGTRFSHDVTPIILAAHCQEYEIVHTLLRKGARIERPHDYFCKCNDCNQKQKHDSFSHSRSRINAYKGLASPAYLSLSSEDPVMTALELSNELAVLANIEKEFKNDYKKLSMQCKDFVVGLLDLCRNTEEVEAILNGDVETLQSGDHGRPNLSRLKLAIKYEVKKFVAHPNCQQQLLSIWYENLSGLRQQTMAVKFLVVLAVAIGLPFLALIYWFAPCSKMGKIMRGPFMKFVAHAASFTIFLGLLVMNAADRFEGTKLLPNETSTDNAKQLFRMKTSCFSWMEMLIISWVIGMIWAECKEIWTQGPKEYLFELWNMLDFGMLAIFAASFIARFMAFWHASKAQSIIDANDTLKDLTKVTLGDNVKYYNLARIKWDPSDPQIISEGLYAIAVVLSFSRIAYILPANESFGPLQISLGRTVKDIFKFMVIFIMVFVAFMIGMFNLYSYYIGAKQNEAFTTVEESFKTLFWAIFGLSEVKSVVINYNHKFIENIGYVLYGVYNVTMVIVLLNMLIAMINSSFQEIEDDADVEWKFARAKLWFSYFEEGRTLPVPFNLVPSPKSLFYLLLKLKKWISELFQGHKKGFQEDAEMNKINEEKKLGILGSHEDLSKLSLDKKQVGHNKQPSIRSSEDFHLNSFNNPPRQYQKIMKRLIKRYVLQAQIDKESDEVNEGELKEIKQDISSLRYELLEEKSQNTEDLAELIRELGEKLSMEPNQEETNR
Summary of the method: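 The FLIPR signal is maximum fluorescence after 30 μM OAG minus minimum before compound, measured in a human TRPC6 stable line loaded with Calcium 5 dye. Compounds were preincubated 20 min. pIC50 came from four-parameter logistic fitting of inhibition rates and is given as symbol ranges.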

| Compound | IC50 |
| --- | --- |
| Cn1nc(-c2ccccc2)cc1Oc1nc(C#N)ccc1-c1ccc(CCN)cn1 [Compound No. 1279, 5-[5-(2-Aminoethyl)pyridin-2-yl]-6-(2-methyl-5-phenylpyrazol-3-yl)oxypyridine-2-carbonitrile] | < 10 nM |
| Cn1nc(-c2ccccn2)cc1Oc1cc(C#N)cnc1-c1ccc(CN)cn1 [Compound No. 1289, 6-[5-(Aminomethyl)pyridin-2-yl]-5-(2-methyl-5-pyridin-2-ylpyrazol-3-yl)oxypyridine-3-carbonitrile] | > 1000 nM |
| Cc1nc(Oc2cc(C#N)ccc2-c2ncc(CCN)cn2)cc(N2CC(F)(F)C2)n1 [compound 296, 4-[5-(2-aminoethyl)pyrimidin-2-yl]-3-[6-(3,3-difluoroazetidin-1-yl)-2-methylpyrimidin-4-yl]oxybenzonitrile] | < 10 nM |
| CC(C)(N)Cc1ccc(-c2ccc(C#N)cc2Oc2cnnc(N3CCOCC3)c2)cc1 [compound 297, 4-[4-(2-amino-2-methylpropyl)phenyl]-3-(6-morpholin-4-ylpyridazin-4-yl)oxybenzonitrile] | 10 to 1000 nM |
| Cn1nc(-c2ccccc2)cc1Oc1cc(C#N)ccc1-c1ccc(C(O)C(C)(C)N)cn1 (stereo not drawn) [compound 301, 4-[5-(2-amino-1-hydroxy-2-methylpropyl)pyridin-2-yl]-3-(2-methyl-5-phenylpyrazol-3-yl)oxybenzonitrile] | < 10 nM |
| Cc1cc(Oc2cc(C#N)ccc2-c2ncc(CCN)cn2)n(C)n1 [compound 305, 4-[5-(2-aminoethyl)pyrimidin-2-yl]-3-(2,5-dimethylpyrazol-3-yl)oxybenzonitrile] | 10 to 1000 nM |
| Cc1cc(Oc2cc(C#N)ccc2-c2ccc(C(F)(F)CN)cn2)cc(N2CCOCC2)n1 [compound 307, 4-[5-(2-amino-1,1-difluoroethyl)pyridin-2-yl]-3-(2-methyl-6-morpholin-4-ylpyridin-4-yl)oxybenzonitrile] | 10 to 1000 nM |
| Cn1nc(-c2ccccc2)cc1Oc1cc(C#N)ccc1-c1ccc(C(F)(F)CN)cn1 [compound 308, 4-[5-(2-amino-1,1-difluoroethyl)pyridin-2-yl]-3-(2-methyl-5-phenylpyrazol-3-yl)oxybenzonitrile] | 10 to 1000 nM |
| CCOC(=O)c1cc(Oc2cc(C#N)ccc2-c2ccc(CCN)cn2)n(C)n1 [compound 309, ethyl 5-[2-[5-(2-aminoethyl)pyridin-2-yl]-5-cyanophenoxy]-1-methylpyrazole-3-carboxylate] | 10 to 1000 nM |
| Cn1nc(-c2ccccc2)cc1Oc1cc(C#N)ccc1-c1ncc(CN)cn1 [compound 310, 4-[5-(aminomethyl)pyrimidin-2-yl]-3-(2-methyl-5-phenylpyrazol-3-yl)oxybenzonitrile] | < 10 nM |
| Cn1nccc1Oc1cc(C#N)ccc1-c1ncc(CCN)cn1 [compound 311, 4-[5-(2-aminoethyl)pyrimidin-2-yl]-3-(2-methylpyrazol-3-yl)oxybenzonitrile] | > 1000 nM |
| Cc1cc(Oc2cc(C#N)ccc2-c2ncc(CCN)cn2)cc(C2CC2)n1 [compound 315, 4-[5-(2-aminoethyl)pyrimidin-2-yl]-3-(2-cyclopropyl-6-methylpyridin-4-yl)oxybenzonitrile] | < 10 nM |
| Cn1nc(C2CC2)cc1Oc1cc(C#N)ccc1-c1ncc(CCN)cn1 [compound 317, 4-[5-(2-aminoethyl)pyrimidin-2-yl]-3-(5-cyclopropyl-2-methylpyrazol-3-yl)oxybenzonitrile] | < 10 nM |
| CCCCc1cc(Oc2cc(C#N)ccc2-c2ccc(C(O)CN)cn2)n(C)n1 (stereo not drawn) [compound 318, 4-[5-(2-amino-1-hydroxyethyl)pyridin-2-yl]-3-(5-butyl-2-methylpyrazol-3-yl)oxybenzonitrile] | < 10 nM |
| CCCCc1cc(Oc2cc(C#N)ccc2-c2ncc(CCN)cn2)n(C)n1 [compound 319, 4-[5-(2-aminoethyl)pyrimidin-2-yl]-3-(5-butyl-2-methylpyrazol-3-yl)oxybenzonitrile] | < 10 nM |
| Cn1nc(-c2ccccc2O)cc1Oc1cc(C#N)ccc1-c1ccc(C(O)CN)cn1 (stereo not drawn) [compound 321, 4-[5-(2-amino-1-hydroxyethyl)pyridin-2-yl]-3-[5-(2-hydroxyphenyl)-2-methylpyrazol-3-yl]oxybenzonitrile] | < 10 nM |
| CCc1cc(Oc2cc(C#N)ccc2-c2ccc(CN)cn2)n(C)n1 [compound 326, 4-[5-(aminomethyl)pyridin-2-yl]-3-(5-ethyl-2-methylpyrazol-3-yl)oxybenzonitrile] | < 10 nM |

Now from value to compound:

| IC50 | Compound |
| --- | --- |
| 10 to 1000 nM | Cc1nc(Oc2cc(C#N)ccc2-n2cc(CN)cn2)cc(N2CCOCC2)n1 [compound 298, 4-[4-(aminomethyl)pyrazol-1-yl]-3-(2-methyl-6-morpholin-4-ylpyrimidin-4-yl)oxybenzonitrile] |
| < 10 nM | Cc1cc(Oc2cc(C#N)ccc2-c2ccc(CCN)cn2)n(C)n1 [compound 299, 4-[5-(2-aminoethyl)pyridin-2-yl]-3-(2,5-dimethylpyrazol-3-yl)oxybenzonitrile] |
| 10 to 1000 nM | Cn1nccc1Oc1cc(C#N)ccc1-c1ccc(CCN)cn1 [compound 300, 4-[5-(2-aminoethyl)pyridin-2-yl]-3-(2-methylpyrazol-3-yl)oxybenzonitrile] |
| 10 to 1000 nM | Cc1nc(Oc2cc(C#N)ccc2-n2cc(C(O)C(C)(C)N)cn2)cc(N2CCOCC2)n1 (stereo not drawn) [compound 302, 4-[4-(2-amino-1-hydroxy-2-methylpropyl)pyrazol-1-yl]-3-(2-methyl-6-morpholin-4-ylpyrimidin-4-yl)oxybenzonitrile] |
| 10 to 1000 nM | Cc1cc(Oc2cc(C#N)ccc2-c2ccc(C(O)C(C)(C)N)cn2)cc(N2CCOCC2)n1 (stereo not drawn) [compound 303, 4-[5-(2-amino-1-hydroxy-2-methylpropyl)pyridin-2-yl]-3-(2-methyl-6-morpholin-4-ylpyridin-4-yl)oxybenzonitrile] |
| > 1000 nM | Cc1cc(Oc2cc(C#N)ccc2-n2cc(CCN)cn2)n(C)n1 [compound 304, 4-[4-(2-aminoethyl)pyrazol-1-yl]-3-(2,5-dimethylpyrazol-3-yl)oxybenzonitrile] |
| < 10 nM | N#Cc1ccc(-c2ccc(CCN)cc2)c(Oc2cc(-c3ccccc3)no2)c1 [compound 306, 4-[4-(2-aminoethyl)phenyl]-3-[(3-phenyl-1,2-oxazol-5-yl)oxy]benzonitrile] |
| < 10 nM | Cn1nc(-c2ccccc2)cc1Oc1cc(C#N)ccc1-c1ccc(CCN)nn1 [compound 312, 4-[6-(2-aminoethyl)pyridazin-3-yl]-3-(2-methyl-5-phenylpyrazol-3-yl)oxybenzonitrile] |
| < 10 nM | Cn1nc(-c2ccccc2)cc1Oc1cc(C#N)ccc1-c1cnc(CCN)cn1 [compound 313, 4-[5-(2-aminoethyl)pyrazin-2-yl]-3-(2-methyl-5-phenylpyrazol-3-yl)oxybenzonitrile] |
| < 10 nM | Cn1nc(-c2ccccc2)cc1Oc1cc(C#N)ccc1-c1cnc(C(O)CN)cn1 (stereo not drawn) [compound 314, 4-[5-(2-amino-1-hydroxyethyl)pyrazin-2-yl]-3-(2-methyl-5-phenylpyrazol-3-yl)oxybenzonitrile] |
| > 1000 nM | Cn1nc(C(=O)O)cc1Oc1cc(C#N)ccc1-c1ccc(CCN)cn1 [compound 316, 5-[2-[5-(2-aminoethyl)pyridin-2-yl]-5-cyanophenoxy]-1-methylpyrazole-3-carboxylic acid] |
| < 10 nM | COc1ccccc1-c1cc(Oc2cc(C#N)ccc2-c2ccc(C(O)CN)cn2)n(C)n1 (stereo not drawn) [compound 320, 4-[5-(2-amino-1-hydroxyethyl)pyridin-2-yl]-3-[5-(2-methoxyphenyl)-2-methylpyrazol-3-yl]oxybenzonitrile] |
| 10 to 1000 nM | Cn1nc(-c2ccccc2OCc2ccccc2)cc1Oc1cc(C#N)ccc1-c1ccc(C(O)CN)cn1 (stereo not drawn) [compound 322, 4-[5-(2-amino-1-hydroxyethyl)pyridin-2-yl]-3-[2-methyl-5-(2-phenylmethoxyphenyl)pyrazol-3-yl]oxybenzonitrile] |
| 10 to 1000 nM | Cc1cc(Oc2cc(C#N)ccc2-c2ccc(CN)cn2)n(C)n1 [compound 323, 4-[5-(aminomethyl)pyridin-2-yl]-3-(2,5-dimethylpyrazol-3-yl)oxybenzonitrile] |
| < 10 nM | CCc1cc(Oc2cc(C#N)ccc2-c2ncc(CN)cn2)n(C)n1 [compound 324, 4-[5-(aminomethyl)pyrimidin-2-yl]-3-(5-ethyl-2-methylpyrazol-3-yl)oxybenzonitrile] |
| < 10 nM | Cn1nc(C2CC2)cc1Oc1cc(C#N)ccc1-c1ncc(CN)cn1 [compound 325, 4-[5-(aminomethyl)pyrimidin-2-yl]-3-(5-cyclopropyl-2-methylpyrazol-3-yl)oxybenzonitrile] |
